This test has as its target T1, PfTSEN1 (Plasmodium falciparum, UniProt A0A144A1E9).
T1 sequence (A0A144A1E9 1-220): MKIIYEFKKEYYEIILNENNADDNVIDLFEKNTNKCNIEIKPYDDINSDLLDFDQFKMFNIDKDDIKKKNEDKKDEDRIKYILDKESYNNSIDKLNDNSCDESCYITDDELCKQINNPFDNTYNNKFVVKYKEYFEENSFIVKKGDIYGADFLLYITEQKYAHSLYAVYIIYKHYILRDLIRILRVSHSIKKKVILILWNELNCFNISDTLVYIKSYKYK
Nature of the test: microscale thermophoresis. The class given is binding. A general note: MST reads how a fluorescent partner responds to local heating, with and without ligand.

pKd: −log10 of the molar value.

One may read the pKd as the Kd on a negative log10 scale, so that one unit is a factor of ten.

In turn, `NCCCn1ccc2c1C(=O)c1cccnc1C2=O` [TSENi, 1-(3-aminopropyl)-1H-pyrrolo[2,3-f]quinoline-4,9-dione] had a pKd of 6.02.

For the origin of these results see paper doi:10.1101/2024.06.07.597859v1 (biorxiv, 2024).
